As usually defined, the Kd is the equilibrium constant for the complex coming apart. A higher Kd goes with weaker binding.

What all share (type): binding
Assay [1] addresses T1, MmTRPT1 (tRNA 2′-phosphotransferase 1) (Mus musculus, UniProt Q8K3A2).
T1 sequence (Q8K3A2 1-249): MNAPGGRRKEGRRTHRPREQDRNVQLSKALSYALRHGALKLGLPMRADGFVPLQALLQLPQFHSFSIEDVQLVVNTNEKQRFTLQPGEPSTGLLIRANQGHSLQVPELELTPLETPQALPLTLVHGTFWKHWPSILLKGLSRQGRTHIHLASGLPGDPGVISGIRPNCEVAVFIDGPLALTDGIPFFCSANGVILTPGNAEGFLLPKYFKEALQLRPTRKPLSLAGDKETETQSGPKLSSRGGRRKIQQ
Kind of assay: crystal structure.

Assay [2] has as its target T2, HsTRPT1 (tRNA 2′-phosphotransferase 1) (Homo sapiens, UniProt Q86TN4).
T2 sequence (Q86TN4 1-253): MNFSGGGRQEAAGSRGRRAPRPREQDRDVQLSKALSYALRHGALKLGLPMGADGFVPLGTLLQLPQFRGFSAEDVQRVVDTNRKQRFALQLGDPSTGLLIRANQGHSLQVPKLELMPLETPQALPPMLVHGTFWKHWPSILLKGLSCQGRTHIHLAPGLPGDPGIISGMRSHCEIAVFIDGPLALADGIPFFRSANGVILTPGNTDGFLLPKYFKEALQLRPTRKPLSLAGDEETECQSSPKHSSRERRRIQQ
Kind of assay: crystal structure.

For assay [3], the target named is T1, MmTRPT1 (tRNA 2′-phosphotransferase 1). As to the kind of experiment: ITC.
For assay [4], the target named is T3, ScTRPT1 (TPT1, tRNA 2′-phosphotransferase) (Saccharomyces cerevisiae, UniProt Q12272).
T3 sequence (Q12272 1-230): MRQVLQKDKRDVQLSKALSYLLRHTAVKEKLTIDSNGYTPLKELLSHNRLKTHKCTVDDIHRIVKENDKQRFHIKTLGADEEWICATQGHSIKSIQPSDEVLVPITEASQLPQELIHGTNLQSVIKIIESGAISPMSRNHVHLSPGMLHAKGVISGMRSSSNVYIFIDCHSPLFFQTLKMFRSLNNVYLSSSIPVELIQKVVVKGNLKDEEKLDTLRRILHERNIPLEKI
Kind of assay: ITC and co-crystal structure.

The target in assay [5] is T2, HsTRPT1 (tRNA 2′-phosphotransferase 1). Kind of assay: ITC.

As for `Nc1ncnc2c1ncn2[C@@H]1O[C@H](COP(=O)(O)OP(=O)(O)OC[C@H]2O[C@H](OP(=O)(O)O)[C@H](O)[C@@H]2O)[C@@H](O)[C@H]1O` [ADPRp], the crystal structure entry was “binds to the HsTRPT1/MmTRPT1 monomer” in assay [1] and “electron density map clearly showed that one ADPRp molecule” in assay [2].
For `NC(=O)c1ccc[n+]([C@@H]2O[C@H](COP(=O)([O-])OP(=O)(O)OC[C@H]3O[C@@H](n4cnc5c(N)ncnc54)[C@H](O)[C@@H]3O)[C@@H](O)[C@H]2O)c1` [NAD^+], the figures for the Kd in assay [3], in assay [4] and in assay [5] were 22.3 ± 0.75 µM, 23.8 ± 1.88 µM and 11.8 ± 0.32 µM, respectively.
